# Key:
# [1] = Circular dichroism, temperature and dilution stability of nanofibers; type: physicochemical; conditions: CD, 15 to 50° C., dilutions 1:10-1:100
# Experimental: Secondary structure was assessed using circular dichroism (CD). TPGnRH solutions (70 or 700 μM) were prepared in aqueous 0.9% sodium chloride and analysed at 20±0.1° C. using Applied Photophysics Pi180 spectropolarimeter (Surrey, UK). For the temperature-dependent studies, the peptide was incubated at a range of temperature (15 to 50° C.) and the spectra were collected at 5° C. intervals. To investigate the effect of dilution, peptide solutions were diluted in 0.9% (w/v) sodium chloride solution at 20° C. Data were collected every 1 nm over the wavelength range of 200-360 nm. X-ray diffraction (XRD) studies were carried out on stalks prepared by suspending drops of TPGnRH solutions (70 or 700 μM) between the ends of the wax-coated capillaries and allowing them to dry at room temperature. Stalks were vertically mounted onto a four-axis goniometer of a FR-E+X-Ray diffractomer (Rigaku, Sevenoaks, UK).
# [2] = system: rat red blood cells (RBCs); type: cell-based; conditions: 1 hour, 37° C., read-out: IC50 of haemolysis
# Experimental: Fresh blood, obtained from adult male Wistar rats (250 to 300 g) (Bioresources Unit, School of Pharmacy and Biomedical Sciences, University of Portsmouth, Portsmouth, UK) was collected in sterile lithium heparin-coated tubes (170 I.U., Vacutainer, BD Bioscience, UK) and kept on ice. To isolate the rat red blood cells (RBCs), fresh blood was centrifuged at 2,000 g using Haraeus Multifuge […] (Thermo Scientific, UK) at 4° C. for 10 minutes. The supernatant was removed, and the final volume was raised to the whole blood volume with PBS (0.01 M, pH 7.4). RBCs were centrifuged at 2,000 g for 10 minutes and washed with PBS three times. After the washing steps, two cell suspensions were prepared: 4% (w/v) RBCs in PBS and 1% (v/v) Triton X-100 (i.e. 1 g of cells in 25 mL of PBS or 1% (v/v) Triton X-100). RBCs in PBS and in Triton X-100 were used as a negative and positive control, respectively. […] After incubation, the cells were centrifuged at 1,200 g using a Haraeus Multifuge […] (Thermo Scientific, UK) during 10 minutes. The supernatant (100 μL) was transferred to a 96-well plate, and absorbance was measured at 590 nm. Percentage of haemolysis was calculated using Equation 1: [formula] Abs Negative Control represents the absorbance of the RBCs in PBS and Abs Positive Control the absorbance of the RBCs in 1% (v/v) Triton X-100. A control for Cremophor EL and ethanol mixture was also included.
# U-87 MG cells = assay: Cell cycle (propidium iodide flow cytometry); type: cell-based, human
# Experimental: In vitro antitumour effects of TPGnRH and PAX-loaded TPGnRH were assessed in U-87 MG cells, UP-007, UP-029, SEBTA-023 MDA-MD-231 [triple negative (ER^−, PR—, HER2^−) breast cancer cell line] and SK-OV-3 (human ovarian carcinoma with a low expression of GnRH-R). Cells were seeded at 1,400 cells/cm^2 and allowed to attach and grow for 3 days. In experiments with TPGnRH nanofibers alone (to obtain the IC50 value in each cell line), cells were treated with medium supplemented with the peptide solutions in PBS (0.7 to 700 μM) to achieve a final concentration of 0.07 to 70 μM per well. Media was replaced by fresh media every two days for 6 days. […] On day 4, PAX-loaded TPGnRH nanofibers containing 1 nM of PAX and 7 or 35 μM of TPGnRH were added and the effect on cell viability, proliferation, cell cycle, and apoptosis was assessed on day 6. Only for the MDA-MB-231 cells, on day 4, PAX-loaded TPGnRH nanofibers containing 10 nM of PAX and 7 or 35 μM of TPGnRH were added and the effect on cell viability, proliferation, cell cycle, and apoptosis was also assessed on day 6. […] Cell metabolic activity was measured using MTT assay. […] Afterwards, dimethyl sulfoxide (100 μL) was added to the wells to dissolve the formazan crystals and the absorbance was measured at 570 and 690 nm. […] Cells were incubated with BrdU for 24 hours before the end of the pre-determined time-points. […]
compound,measurement,setting,value
"CCCCCCCCCCCCCCCC(=O)Oc1ccc(C[C@H](NC(=O)[C@H](CO)NC(=O)[C@H](Cc2c[nH]c3ccccc23)NC(=O)[C@H](Cc2c[nH]cn2)NC(=O)[C@@H](N)CCC(=O)O)C(=O)NCC(=O)N[C@@H](CC(C)C)C(=O)N[C@@H](CCCNC(=N)N)C(=O)N2CCC[C@H]2C(=O)NCC(N)=O)cc1 [TPGnRH, Tyrosine (O-Palmitoyl)-Glu-GnRH]",temperatures at which nanofibers are physically stable,[1],< 40 °C
same,IC50,[2],~200 µM
same,effect on cell cycle,"U-87 MG cells; >7 μM, every two days, 6 days of treatment",cell cycle arrest at the G2/M phase
same,percentage of cells at G2/M,"U-87 MG cells; day 6, TPGnRH alone at 35 μM or TPGnRH 4 days then one dose of PAX-loaded TPGnRH",21.81±3.98%
